Experimental data reported in patent US4689326A, “Process for controlling hyperlipidemia” (Research Corporation, priority 1985, dated 1987).

Experiments:
Liver = experiment: Lipid Extraction Studies in Rats, Example 11: liver; type: in vivo, Sprague Dawley male rats; details: oral 20 mg/kg/day, fourteen days, ± SD
LDL = experiment: Lipoprotein fractions in Rats, Example 11: LDL; type: in vivo, Sprague Dawley male rats; details: oral 20 mg/kg/day, fourteen days, ± SD
Description: (§1) A group of six Sprague Dawley male rats were treated with 20 mg/kg/day of 3,4,5,6-dibenzohomopiperidine. The treatment was applied orally. An equal number of Sprague Dawley male rats, having approximately the same weight, were utilized as an untreated control. At the end of fourteen days the control and treated rats were sacrificed. Blood was collected from the abdominal aorta and lipoprotein fractions were obtained by the method of Hatch and Lees [Adv. Lipid Rees., 6, 1 (1968)] and Havel et al. [J. Clin Invest., 34, 1345 (1955)]. Each of the fractions were analyzed for cholesterol, triglycerides, neutral lipids, phospholipids and protein levels.

serum triglycerides [1] = experiment: Testing of Normal Rats: serum triglycerides, Example 8; type: in vivo, Sprague Dawley male rats; details: oral 20 mg/kg/day
Description: In Example 8 a set of six Sprague Dawley male rats, each weighing approximately 350 grams, were orally treated with a concentration of 20 mg per kilogram of rat weight per day, again suspended in a 1% aqueous solution of CMC. The dosage was applied orally by an intubation needle. On days 9 and 16 serum cholesterol and serum triglycerides blood levels of the rats were measured utilizing th procedure of Example 7.
A control group of six similar Sprague Dawley male rats were untreated but tested on Days 9 and 16 in accordance with the tests administered to the treated rats. Table 6 reports the percent control based on the decrease in serum cholesterol and serum triglycerides of the treated rats compared to the levels measured in the untreated control group.

Chylomicrons = experiment: Lipoprotein fractions in Rats, Example 11: chylomicrons; type: in vivo, Sprague Dawley male rats; details: oral 20 mg/kg/day, fourteen days, ± SD
Description: as §1

[2] = test system: ATP Dependent Citrate Lyase; experiment: In vivo enzyme activity, liver of treated mice: ATP dependent citrate lyase; parameters: species or system CF1 male mice; details: 16 days, ± SD
Description: (§2) In vitro enzymatic studies were undertaken using 10% homogenates of CF1 male mouse liver with […] of compound 3,4,5,6-dibenzohomopiperidine. In addition, in vivo enzymatic studies were performed, again using 10% liver homogenates (prepared in 0.25 M sucrose plus 0.001 M (ethylenedinitrilo)-tetraacetic acid, ph 7.25 from CF1 male mice obtained after administering 3,4,5,6-dibenzohomopiperidine for 16 days at a concentration ranging from 10 to 60 mg/kg/day, intraperitoneally.
(§3) The following enzyme activities were determined by following standard literature procedures: acetyl coenzyme synthetase; adenosine triphosphate dependent citrate lyase; mitochondrial citrate exchange; cholesterol/7 hydroxylase; 3-hydroxy-3-methyl-glutaryl coenzyme A reductase; acetyl coenzyme A carboxylase activity; fatty acid synthetase activity; sn-glycerol-3-phosphate acyl transferase activity; phosphatidate phosphohydrolase activity; cholesterol acyl transferase; and heparin activated hepatic lypoprotein lipase. Protein was determined for all enzyme assays by the Lowry et al. technique (J. Biol. Chem, 193, 265 (1951)).

VLDL = experiment: Lipoprotein fractions in Rats, Example 11: VLDL; type: in vivo, Sprague Dawley male rats; details: oral 20 mg/kg/day, fourteen days, ± SD
Description: as §1

serum triglycerides [3] = experiment: Testing of Normal Mice: serum triglycerides (BioDynamics kit), Example 7; type: in vivo, CF1 male mice; details: Mus musculus, 384 h; 20 mg/kg/day ip, day 16, ± SD
Description: Suspensions of Compounds Nos. 1-9 were prepared wherein the compounds were suspended in an aqueous 1% carboxymethylcelluose solution, homogenized and administered to CF1 male mice, each weighing approximately 25 grams, intraperitoneally on a daily basis for 16 days. The dosage was, with the exception of one compound, 20 milligrams of the active compound per kilogram of mouse weight per day. On days 9 and 16 blood was obtained by tail vein bleeding. The blood serum was separated by centrifugation for three minutes. Serum cholesterol levels were determined by a modification of the Liebermann-Burchard reaction. Serum was also collected on day 16 and the triglycerides content was determined by a commercial kit, BioDynamics/bnc Single Vile Colorimetric Method 348201. Each compound was tested on a group of six mice.
In addition to the above-described treated mice, untreated control groups of six mice were similarly tested on days 9 and 14 or 16 to determine their serum cholesterol and triglycerides blood levels. Table 5 reports the percent control, based on the serum cholesterol and serum triglyceride levels of the treated mice compared to the untreated controls. Table 5 also includes the standard deviation indicating the level of confidence of these numbers.
Example 7 was repeated substituting clofibrate, a compound used in the prior art to lower serum cholesterol and serum triglyceride levels. The clofibrate was administered as a suspension in an aqueous 1% solution of carboxymethylcellulose. However, unlike the compounds of the present invention which were administered at a dosage of 20 mg/kg day, ip, this compound was administered at the elevated concentration of 150 mg/kg day, ip.

Fatty Acid Synthetase [4] = experiment: In vivo enzyme activity, liver of treated mice: fatty acid synthetase; parameters: species or system CF1 male mice; details: 16 days, ± SD
Description: as §2, §3

Acetyl CoA Carboxylase = target: T1, Acetyl CoA Carboxylase (Mus musculus, UniProt Q5SWU9); experiment: In vitro enzyme activity, liver homogenate: acetyl CoA carboxylase; type: biochemical, CF1 male mouse; details: ± SD, N = 6, read-out: Percent Control, in vitro enzyme activity
T1 construct: 10% homogenates of CF1 male mouse liver; from tissue; host or cells: CF1 male mouse liver, 10% homogenate
Description: as §2, §3

Small Intestine = experiment: Lipid Extraction Studies in Rats, Example 11: small intestine; type: in vivo, Sprague Dawley male rats; details: oral 20 mg/kg/day, fourteen days, ± SD
Fatty Acid Synthetase [5] = target: T2, Fatty Acid Synthetase (Mus musculus, UniProt P19096); experiment: In vitro enzyme activity, liver homogenate: fatty acid synthetase; type: biochemical, CF1 male mouse; details: ± SD, N = 6, read-out: Percent Control, in vitro enzyme activity
T2 construct: 10% homogenates of CF1 male mouse liver; from tissue; host or cells: CF1 male mouse liver, 10% homogenate
Description: as §2, §3

[6] = test system: sn-Glycerol-3-Phosphate Acyl Transferase; experiment: In vivo enzyme activity, liver of treated mice: sn-glycerol-3-phosphate acyl transferase; parameters: species or system CF1 male mice; details: 16 days, ± SD
Description: as §2, §3

T2 sequence (P19096 whole entry): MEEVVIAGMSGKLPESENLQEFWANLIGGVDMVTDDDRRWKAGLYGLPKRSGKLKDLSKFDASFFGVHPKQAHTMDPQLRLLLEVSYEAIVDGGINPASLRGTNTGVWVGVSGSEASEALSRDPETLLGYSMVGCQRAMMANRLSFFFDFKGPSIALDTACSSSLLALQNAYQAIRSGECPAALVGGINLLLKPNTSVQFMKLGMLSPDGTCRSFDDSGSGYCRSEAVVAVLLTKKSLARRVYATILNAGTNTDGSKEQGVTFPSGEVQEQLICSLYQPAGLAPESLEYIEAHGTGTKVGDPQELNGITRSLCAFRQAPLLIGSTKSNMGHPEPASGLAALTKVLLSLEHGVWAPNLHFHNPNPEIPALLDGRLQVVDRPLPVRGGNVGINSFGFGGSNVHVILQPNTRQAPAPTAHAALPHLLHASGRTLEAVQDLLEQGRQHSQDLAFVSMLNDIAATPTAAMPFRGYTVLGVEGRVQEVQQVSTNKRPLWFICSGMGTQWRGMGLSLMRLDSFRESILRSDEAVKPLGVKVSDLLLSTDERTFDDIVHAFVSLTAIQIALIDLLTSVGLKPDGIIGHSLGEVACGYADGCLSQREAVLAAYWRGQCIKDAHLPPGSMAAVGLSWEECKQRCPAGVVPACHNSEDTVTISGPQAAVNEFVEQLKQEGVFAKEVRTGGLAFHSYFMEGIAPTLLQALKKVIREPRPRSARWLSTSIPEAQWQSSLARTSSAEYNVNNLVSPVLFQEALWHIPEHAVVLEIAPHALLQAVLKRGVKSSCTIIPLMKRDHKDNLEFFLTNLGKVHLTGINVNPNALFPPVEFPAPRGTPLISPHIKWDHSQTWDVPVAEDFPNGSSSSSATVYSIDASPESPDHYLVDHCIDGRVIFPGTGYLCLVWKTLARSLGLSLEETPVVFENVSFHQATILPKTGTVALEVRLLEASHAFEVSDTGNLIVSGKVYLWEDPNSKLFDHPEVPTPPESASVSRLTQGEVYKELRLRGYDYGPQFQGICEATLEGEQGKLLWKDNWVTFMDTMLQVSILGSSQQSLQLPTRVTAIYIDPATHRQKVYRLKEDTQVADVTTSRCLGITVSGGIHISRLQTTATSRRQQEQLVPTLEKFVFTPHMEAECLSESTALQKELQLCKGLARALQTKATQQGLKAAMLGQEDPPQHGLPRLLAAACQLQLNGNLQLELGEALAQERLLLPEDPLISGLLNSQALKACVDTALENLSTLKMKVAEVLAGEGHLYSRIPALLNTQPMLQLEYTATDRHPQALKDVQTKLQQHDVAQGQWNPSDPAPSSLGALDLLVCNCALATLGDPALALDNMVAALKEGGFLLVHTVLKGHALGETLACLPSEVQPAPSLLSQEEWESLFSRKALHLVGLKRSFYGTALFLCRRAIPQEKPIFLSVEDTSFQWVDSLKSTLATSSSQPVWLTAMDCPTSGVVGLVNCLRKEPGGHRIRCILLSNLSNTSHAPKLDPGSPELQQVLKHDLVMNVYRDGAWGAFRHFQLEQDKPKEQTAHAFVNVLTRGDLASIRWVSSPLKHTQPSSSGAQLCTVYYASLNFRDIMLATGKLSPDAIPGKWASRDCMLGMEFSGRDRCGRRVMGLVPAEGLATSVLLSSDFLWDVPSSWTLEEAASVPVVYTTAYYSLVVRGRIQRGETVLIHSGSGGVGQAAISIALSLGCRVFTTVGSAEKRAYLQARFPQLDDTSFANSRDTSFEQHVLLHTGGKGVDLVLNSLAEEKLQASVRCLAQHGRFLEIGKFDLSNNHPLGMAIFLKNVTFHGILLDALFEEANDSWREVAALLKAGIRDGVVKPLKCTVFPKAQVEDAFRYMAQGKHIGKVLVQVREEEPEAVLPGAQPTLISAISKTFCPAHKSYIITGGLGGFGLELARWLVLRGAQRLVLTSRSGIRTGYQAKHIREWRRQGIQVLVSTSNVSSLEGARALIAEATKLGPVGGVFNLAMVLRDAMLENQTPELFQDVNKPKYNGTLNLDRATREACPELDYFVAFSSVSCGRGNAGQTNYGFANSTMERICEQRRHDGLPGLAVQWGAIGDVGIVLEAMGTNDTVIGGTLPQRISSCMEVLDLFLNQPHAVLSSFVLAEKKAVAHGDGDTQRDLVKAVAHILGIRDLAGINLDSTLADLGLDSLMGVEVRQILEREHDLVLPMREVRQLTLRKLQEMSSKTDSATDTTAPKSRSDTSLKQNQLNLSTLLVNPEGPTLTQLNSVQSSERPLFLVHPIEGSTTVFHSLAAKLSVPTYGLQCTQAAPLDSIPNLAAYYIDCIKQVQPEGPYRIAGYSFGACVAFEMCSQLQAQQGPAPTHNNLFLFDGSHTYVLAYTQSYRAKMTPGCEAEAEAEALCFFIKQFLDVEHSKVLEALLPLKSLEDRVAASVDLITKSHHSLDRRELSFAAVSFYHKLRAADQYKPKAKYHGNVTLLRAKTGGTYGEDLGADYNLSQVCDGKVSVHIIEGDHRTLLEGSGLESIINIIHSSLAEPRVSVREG

Compound: c1ccc2c(c1)CNCc1ccccc1-2 [Compound 3, 3,4,5,6-dibenzohomopiperidine]
- Cholesterol, concentration as a function of control (Liver): 65 ± 5%
- Mg Lipid Wt, concentration as a function of control (Liver): 89 ± 7%
- Neutral Lipids, concentration as a function of control (Liver): 80 ± 5%
- Phospholipids, concentration as a function of control (Liver): 98 ± 9%
- Protein, concentration as a function of control (Liver): 97 ± 7%
- Triglycerides, concentration as a function of control (Liver): 76 ± 6%
- Cholesterol, concentration as a function of control (LDL): 82 ± 8%
- Neutral Lipids, concentration as a function of control (LDL): 107 ± 9%
- Phospholipids, concentration as a function of control (LDL): 94 ± 10%
- Protein, concentration as a function of control (LDL): 108 ± 9%
- Triglycerides, concentration as a function of control (LDL): 73 ± 6%
- % Control Serum Triglycerides Day 9 (serum triglycerides [1]; day 9): 54%
- % Control Serum Triglycerides Day 16 (serum triglycerides [1]; day 16): 54%
- Cholesterol, concentration as a function of control (Chylomicrons): 77 ± 6%
- Neutral Lipids, concentration as a function of control (Chylomicrons): 69 ± 7%
- Phospholipids, concentration as a function of control (Chylomicrons): 65 ± 5%
- Protein, concentration as a function of control (Chylomicrons): 106 ± 6%
- Triglycerides, concentration as a function of control (Chylomicrons): 69 ± 6%
- Percent Control, in vivo enzyme activity ([2]; 10 mg/kg/day ip): 73 ± 6%
- Percent Control, in vivo enzyme activity ([2]; 20 mg/kg/day ip): 63 ± 4%
- Percent Control, in vivo enzyme activity ([2]; 40 mg/kg/day ip): 62 ± 3%
- Percent Control, in vivo enzyme activity ([2]; 60 mg/kg/day ip): 65 ± 5%
- Cholesterol, concentration as a function of control (VLDL): 40 ± 4%
- Neutral Lipids, concentration as a function of control (VLDL): 63 ± 6%
- Phospholipids, concentration as a function of control (VLDL): 95 ± 7%
- Protein, concentration as a function of control (VLDL): 96 ± 8%
- Triglycerides, concentration as a function of control (VLDL): 69 ± 5%
- response vs control in vivo at 20 mg/kg (serum triglycerides [3]): 49 ± 5%
- Percent Control, in vivo enzyme activity (Fatty Acid Synthetase [4]; 10 mg/kg/day ip): 100 ± 8%
- Percent Control, in vivo enzyme activity (Fatty Acid Synthetase [4]; 20 mg/kg/day ip): 114 ± 6%
- Percent Control, in vivo enzyme activity (Fatty Acid Synthetase [4]; 40 mg/kg/day ip): 106 ± 7%
- Percent Control, in vivo enzyme activity (Fatty Acid Synthetase [4]; 60 mg/kg/day ip): 110 ± 8%
- remaining activity at 50 µM (Acetyl CoA Carboxylase; 50 μM): 84 ± 6%
- remaining activity at 100 µM (Acetyl CoA Carboxylase; 100 μM): 100 ± 7%
- remaining activity at 200 µM (Acetyl CoA Carboxylase; 200 μM): 99 ± 5%
- Cholesterol, concentration as a function of control (Small Intestine): 130 ± 6%
- Mg Lipid Wt, concentration as a function of control (Small Intestine): 143 ± 5%
- Neutral Lipids, concentration as a function of control (Small Intestine): 149 ± 6%
- Phospholipids, concentration as a function of control (Small Intestine): 119 ± 6%
- Protein, concentration as a function of control (Small Intestine): 118 ± 7%
- Triglycerides, concentration as a function of control (Small Intestine): 130 ± 6%
- remaining activity at 50 µM (Fatty Acid Synthetase [5]; 50 μM): 91 ± 7%
- remaining activity at 100 µM (Fatty Acid Synthetase [5]; 100 μM): 92 ± 8%
- remaining activity at 200 µM (Fatty Acid Synthetase [5]; 200 μM): 101 ± 9%
- Percent Control, in vivo enzyme activity ([6]; 10 mg/kg/day ip): 45 ± 7%
- Percent Control, in vivo enzyme activity ([6]; 20 mg/kg/day ip): 68 ± 8%
- Percent Control, in vivo enzyme activity ([6]; 40 mg/kg/day ip): 62 ± 6%
- Percent Control, in vivo enzyme activity ([6]; 60 mg/kg/day ip): 81 ± 6%
